The text below walks through data of PMC4942610, “Exploration of acetanilide derivatives of 1-(ω-phenoxyalkyl)uracils as novel inhibitors of Hepatitis C Virus replication” (Scientific Reports, 2016).

Where “and” joins values, the source holds several entries; their conditions need not be identical. Identical values can stand only once. Like-named read-outs stand apart in the source and are kept apart here.

The subject of data set [1] is gt1b (isolate Con1) subgenomic I389/NS3-3′/LucUbiMeo/ET replicon. As to the kind of experiment: gt1b sub-genomic replicon dose-response. It is filed as cell-based, Hepatitis C Virus. Particulars: Huh7 cells stably harbouring the Con1 replicon, 72 h, luciferase. For orientation: Replicon systems follow genome replication, usually without infectious particles.
Data set [2] relates to HCVcc gt 2a strain JFH-1. Description: HCVcc JFH-1 infection of Huh7-J20 reporter cells, second protocol (full life cycle), SEAP dose-response. It is filed as cell-based, Hepatitis C Virus. Particulars: JFH-1 HCVcc gt2a, 3 d post-infection.
Data set [3] deals with Huh7-J20 cells.
Experimental: (§3) All the drugs were tested starting from the concentration of 30 μM with 3-fold dilutions.
(§4) Huh7, Huh7-J20 and Huh7-J17 cells were tested for viability in the same conditions described for antiviral assays. Cells grown in a 96-well tissue culture plate in the presence of the drugs or DMSO control were incubated with the WST-1 reagent (Roche) for 3 h as per the manufacturer’s protocol. Cell viability was obtained reading absorbance at 450 nm with PHERAstar (BMG Labtech).
Data set [4] deals with gt3a S52-WT-∆N sub-genomic replicon. As to the kind of experiment: gt3a sub-genomic replicon dose-response. The format is cell-based, Hepatitis C Virus. Particulars: Huh7.5-SEC14L2 cells electroporated with S52-WT-∆N RNA, 72 h, luciferase.
The test system of the next data set is HCVcc JFH-1DSGCSL. As to the kind of experiment: Viral RNA quantification after infection with adaptive mutant JFH-1DSGCSL (Protocol 3), RT-qPCR. The format is cell-based, Hepatitis C Virus. Particulars: 10 μM, Huh7 cells, Protocol 3, 72 h post-infection. The protocol: To further confirm antiviral activity, we tested Z385, Z387, Z400, and Z401 on a cell culture adaptive derivative HCV JFH-1DSGCSL strain that consistently replicates to high titres. Huh7 cells were infected with HCVcc JFH-1DSGCSL in the presence of drugs as per Protocol 3 described above and RNA was collected 72 h post-infection. Total RNA and the viral RNA were quantified as above.
Figure 5 Antiviral activity on cell-culture adaptive mutant JFH-1DSGCSL. Huh7 cells were infected following the third protocol with adaptive mutant virus and incubated for 3 d with drugs at the concentration of 10 μM. Viral RNA levels and relative SEAP activity were measured as previously described.
Huh7 Lunet-CD81 cells and their control Huh7L- H/EF cells were electroporated with 5 μg of JFH-1 RNA, seeded with drugs in a 12-well tissue culture dish and incubated for 3 d. Cellular RNA was isolated using TRI Reagent (Sigma) following manufacturer’s protocol. RNA quantification from the released viral particles was performed as below following digestion of infected cell medium with RNAse A for 2 h and RNA extraction using the RNeasy kit (Qiagen). HCV RNA quantification was carried out by RT-qPCR using TaqMan probes as reported. Briefly, 250 ng of total RNA were reverse transcribed to obtain cDNA in a 20 μl reaction using TaqMan Reverse Transcription Reagents (Life Technologies) with random hexamers, following manufacturer’s protocol. Reverse transcription was performed at 48 °C for 30 min, followed by 5 min at 85 °C. The qPCR was performed with 1.5 μl of cDNA in a 15 μl reaction mixture (TaqMan Fast Universal PCR Master Mix; Life Technologies) with 250 nM of Fw_primer (5′- […]-3′), 250 nm of Rev_primer (5′-[…]-3′) and 250 nM of TaqMan MGB (minor-groove binding) probe labelled with 6-carboxyfluorescin (5′-FAM-[…]-MGB-3′). Samples were placed in an ABI Fast 7500 instrument (Life Technologies) and were amplified using the following parameters: 95 °C for 5 minutes with cycling parameters set to 95 °C for 3 s and 60 °C for 30 s for 40 cycles. Absolute quantification was carried out using linear regression on a standard curve based on pJFH-1 serial dilution.
(Quantitative PCR measures a nucleic acid by following its amplification.)

Data set [5] has as its system HCVcc gt 2a strain JFH-1. As to the kind of experiment: HCVcc post-entry model (Protocol 3: drug added after 3 h infection), SEAP. The format is cell-based, Hepatitis C Virus. Particulars: 10 μM, 3 d. The procedure: (§1) Reagents and conditions: a) K2CO3, DMF, room temperature, 24 h; b) MeI, NaH, DMF, 0 °C, 4 h. (B,C) Antiviral activity on HCVcc and cell viability. […] Then, inoculum was removed and cells re-fed with fresh medium. After 72 h the infected cell medium was collected and inhibitory effect was determined by measuring SEAP activity (top). Cell viability analysis was performed following same conditions with no viral infection (bottom). The values of DMSO-treated cells are expressed as 100% and those of the drug-treated cells as relative to this DMSO control. Error bars indicate standard error of the means for 3 experiments. (C) Huh7-J20 cells were infected for 3 h with JFH-1 and then treated for 3 d with drugs (10 μM) (post-entry, top) or infected for 3 h in the presence of the drugs, after a pretreatment of 1 h, and then incubated for 3 d maintaining drugs in the medium (full life cycle, centre). SEAP assay was performed on infected cell medium to determine antiviral activity. Data are presented as in (B) above. Cell viability was performed following full life cycle protocol (bottom).
(§2) To assess the effect of compounds on HCV infection, we used three protocols: Protocol 1 where Huh7-J20[23] cells were pre-treated for 1 h and exposed to the cell culture infectious HCV (HCVcc) gt 2a strain JFH-1 in the presence of 10 μM drug or equivalent DMSO (as a vehicle control) for 3 h. […]

Data set [6] relates to HCVcc gt 2a strain JFH-1. Description: HCVcc entry model (Protocol 1: drug only during pre-treatment and 3 h infection), SEAP. It is filed as cell-based, Hepatitis C Virus. Particulars: 10 μM, 1 h pre-treatment + 3 h infection, then 72 h without drug. The protocol: as §1, §2
Data set [7] has as its system SGR-JFH-luc sub-genomic replicon. The format is cell-based, Hepatitis C Virus.
Data set [8] is described as follows: Cell viability assay (WST-1). Particulars: human, Huh7-J20 cells. (In general: Tetrazolium dyes change colour on reduction, which living cells bring about.)
Experimental: as §3, §4
The test system of data set [9] is Huh7-J20 cells. Particulars: cited from earlier work.
The subject of data set [10] is HCVcc gt 2a strain JFH-1. Further details: method as in Iro et al.[23]. Particulars: Huh7-J20 reporter cells; ref Iro et al.[23]; cited from earlier work.

Turning to `O=C(Cn1c(=O)ccn(CCCCCCOc2ccc(Br)cc2)c1=O)Nc1ccc(Oc2ccccc2)cc1` [Z400], the IC50 was 12.6 µM in data set [1], 0.243 µM in the data set on HCVcc gt 2a strain JFH-1 [2] and 1.1 µM in data set [4]. In addition, it took 66.5 µM to reach half-maximal cytotoxicity in the data set with Huh7-J20 cells [3] (CC50). Moreover, the “reduction of total viral RNA levels” value in the data set with HCVcc JFH-1DSGCSL was 90%.

Take `O=C(Cn1c(=O)ccn(CCCCCOc2ccc(Br)cc2)c1=O)Nc1ccc(OCc2ccccc2)cc1` [Z377]: in the data set on HCVcc gt 2a strain JFH-1 [2], the IC50 was 2.98 µM. This molecule came in with a CC50 with Huh7-J20 cells [3] of 18.4 µM.

`O=C(Cn1c(=O)ccn(CCCCCCCCOc2ccc(Br)cc2)c1=O)Nc1ccc(Oc2ccccc2)cc1` [Z401]: the IC50 in data set [1] is 2.2 µM; in the data set with HCVcc gt 2a strain JFH-1 [2] it was 0.092 µM and 0.0924 µM; in [4], 0.69 µM. Also, the antiviral activity post-entry entry with HCVcc gt 2a strain JFH-1 [5] is “strongly effective post-entry”. Moreover, the “inhibition of virus infection (HCVcc entry) relative to DMSO” value in the data set with HCVcc gt 2a strain JFH-1 [6] is listed as 80%. Moreover, the “antiviral activity, short treatment, 48 h post transfection” value in data set [7] turned out to be 50%. In the data set with Huh7-J20 cells [3], this molecule came in with a CC50 of 22.6 µM. Also, the “reduction of total viral RNA levels” value in the data set on HCVcc JFH-1DSGCSL was 90%.

With `O=C(Cn1c(=O)ccn(CCCCOc2ccc(Br)cc2)c1=O)Nc1ccc(Oc2ccccc2)cc1` [Z397], in the data set with HCVcc gt 2a strain JFH-1 [2], the IC50 stood at 2.95 µM. The molecule further had a CC50 with Huh7-J20 cells [3] of 61.1 µM.

In data set [8], `O=C(Cn1c(=O)ccn(Cc2ccccc2)c1=O)Nc1ccc(Oc2ccccc2)cc1` [Z176] returned a CC50 at 3 d of 17.6 µM. For the same molecule, the half-inhibitory concentration (IC50) with HCVcc gt 2a strain JFH-1 [2] (Hepatitis C virus, 72 h) was 1.34 µM.

In the data set on HCVcc gt 2a strain JFH-1 [2], `O=C(Cn1c(=O)ccn(CCCCCOc2ccc(Br)cc2)c1=O)Nc1ccc(C(=O)c2ccccc2)cc1` [Z430] registered an IC50 of 0.941 µM. This molecule also had a 50% cytotoxic concentration (CC50) in the data set on Huh7-J20 cells [3] of 11.5 µM.

Consider `O=C(Cn1c(=O)ccn(CCCCCOc2ccc(Br)cc2)c1=O)Nc1ccc(Oc2ccc(F)cc2)cc1` [Z414], for which half-maximal inhibition in the data set on HCVcc gt 2a strain JFH-1 [2] (IC50) was put at 0.627 µM. Also, the CC50 in the data set with Huh7-J20 cells [3] turned out to be 30.5 µM.

Consider `O=C(Cn1c(=O)ccn(CCCCOCc2ccc(Br)cc2)c1=O)Nc1ccc(Oc2ccccc2)cc1` [Z432], for which it took 1.29 µM to reach half-maximal inhibition with HCVcc gt 2a strain JFH-1 [2] (IC50). For the same molecule, in the data set with Huh7-J20 cells [3], the CC50 is 19.2 µM and the “increase in cytotoxicity compared to Z263” value is listed as around 3 fold.

Consider `O=C(Cn1c(=O)ccn(CCCCCOc2ccc(Br)cc2)c1=O)Nc1ccc(Cc2ccccc2)cc1` [Z387], for which the IC50 turned out to be 23.3 µM in data set [1], 0.712 µM in the data set on HCVcc gt 2a strain JFH-1 [2] and 0.94 µM in data set [4]. In the data set on Huh7-J20 cells [3], this molecule returned a CC50 of 132 µM. Also, in the data set on HCVcc JFH-1DSGCSL, the “reduction of total viral RNA levels” value came out at 90%.

In the data set on HCVcc gt 2a strain JFH-1 [2], `O=C(Cn1c(=O)ccn(CCCCCOc2ccccc2)c1=O)Nc1ccc(Oc2ccccc2)cc1` [Z436] displayed an IC50 of 3.62 µM. Moreover, the midpoint of cytotoxicity with Huh7-J20 cells [3], the CC50, lay at 13 µM.

With `N#Cc1ccc(OCCCCCn2ccc(=O)n(CC(=O)Nc3ccc(Oc4ccccc4)cc3)c2=O)cc1` [Z434], inhibition in the data set with HCVcc gt 2a strain JFH-1 [2] was half-maximal at 1.85 µM (IC50). Also, in the data set with Huh7-J20 cells [3], the CC50 stood at 10.5 µM.

For `CN(C(=O)Cn1c(=O)ccn(CCCCCOc2ccc(Br)cc2)c1=O)c1ccc(Oc2ccccc2)cc1` [Z431], in data set [8], the midpoint of cytotoxicity, the CC50 at 3 d, lay at 2.67 µM. This molecule also came in with an IC50 with HCVcc gt 2a strain JFH-1 [2] (Hepatitis C virus, 72 h) of 0.5 µM.

With `Cc1cn(CCCCCOc2ccc(Br)cc2)c(=O)n(CC(=O)Nc2ccc(Oc3ccccc3)cc2)c1=O` [Z376], it took 69.2 µM to reach half-maximal cytotoxicity in the data set on Huh7-J20 cells [3] (CC50).

Turning to `O=C(Cn1c(=O)ccn(CCCCCCc2ccccc2)c1=O)Nc1ccc(Oc2ccccc2)cc1` [Z437], 2.93 µM corresponded to half-maximal inhibition in the data set on HCVcc gt 2a strain JFH-1 [2] (IC50). For the same molecule, in the data set on Huh7-J20 cells [3], it took 14.7 µM to reach half-maximal cytotoxicity (CC50).

Molecule `O=C(Cn1c(=O)ccn(CCCCCOc2ccc(-c3ccccc3)cc2)c1=O)Nc1ccc(Oc2ccccc2)cc1` [Z438] yielded an IC50 in the data set on HCVcc gt 2a strain JFH-1 [2] of 1.74 µM. In the data set with Huh7-J20 cells [3], this molecule had a CC50 of 9.6 µM.

As to `C[C@@]1(O)[C@H](O)[C@@H](CO)O[C@H]1n1cnc2c(N)ncnc21` [2′-C-methyladenosine], in the data set with Huh7-J20 cells [9], the CC50 is above 30 µM. Besides, the IC50 in the data set with HCVcc gt 2a strain JFH-1 [10] is 2 µM.

Regarding `Cc1ccc(Oc2ccc(NC(=O)Cn3c(=O)ccn(CCCCCOc4ccc(Br)cc4)c3=O)cc2)cc1` [Z413], half-maximal inhibition in the data set on HCVcc gt 2a strain JFH-1 [2] (IC50) required 0.315 µM. This molecule yielded a CC50 with Huh7-J20 cells [3] of 27.4 µM.

`O=C(Cn1c(=O)c(I)cn(CCCCCOc2ccc(Br)cc2)c1=O)Nc1ccc(Oc2ccccc2)cc1` [Z439] registered an IC50 in the data set on HCVcc gt 2a strain JFH-1 [2] of 3.72 µM. This molecule gave a CC50 in the data set on Huh7-J20 cells [3] of 29.7 µM.

`O=C(Cn1c(=O)ccn(CCCCCOc2cccc(Br)c2)c1=O)Nc1ccc(Oc2ccccc2)cc1` [Z421]: in the data set on HCVcc gt 2a strain JFH-1 [2], inhibition was half-maximal at 1.16 µM (IC50). This molecule displayed a CC50 in the data set with Huh7-J20 cells [3] of 44.6 µM.

Molecule `O=C(Cn1c(=O)ccn(CCCCCOc2ccc(Br)cc2)c1=O)Nc1ccc(Oc2ccccc2)cc1` [Z263] came in with a CC50 at 3 d in data set [8] of 56.3 µM. This molecule also had an IC50 with HCVcc gt 2a strain JFH-1 [2] (Hepatitis C virus, 72 h) of 3.1 µM.

With `O=C(Cn1c(=O)ccn(CCCCCOc2ccc(Br)cc2)c1=O)Nc1ccc(Oc2ccc(Cl)cc2)cc1` [Z385], the figures for the IC50 (in [1]; with HCVcc gt 2a strain JFH-1 [2]; in data set [4]) were 6.9 µM, 0.585 µM and 0.66 µM, respectively. In the data set on Huh7-J20 cells [3], this molecule registered a CC50 of 59.2 µM. The “reduction of total viral RNA levels” value in the data set on HCVcc JFH-1DSGCSL is on record as 90%.

By IC50 is commonly meant the concentration that gives 50% inhibition. For orientation: CC50 means the concentration giving 50% cytotoxicity.
